Columns and labels:
human renin = target: T1, human renin (Homo sapiens, UniProt P00797); experiment: Human renin-sheep renin substrate reaction system in vitro (angiotensin I by radioimmunoassay); format: biochemical; conditions: pH 7.4, 37° C., 15 minutes, read-out: IC50 (molar concentration which produced 50% inhibition)
T1 sequence (P00797 67-406): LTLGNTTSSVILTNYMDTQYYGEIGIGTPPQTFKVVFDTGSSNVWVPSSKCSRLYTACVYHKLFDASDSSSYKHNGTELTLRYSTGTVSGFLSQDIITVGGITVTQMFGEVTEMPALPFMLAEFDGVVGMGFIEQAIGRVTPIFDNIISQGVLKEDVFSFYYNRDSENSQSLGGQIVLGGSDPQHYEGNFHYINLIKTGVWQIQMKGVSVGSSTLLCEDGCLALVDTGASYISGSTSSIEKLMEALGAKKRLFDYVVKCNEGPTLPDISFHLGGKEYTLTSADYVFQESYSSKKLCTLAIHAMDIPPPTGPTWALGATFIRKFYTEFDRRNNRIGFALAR
Procedure: Human renin-sheep renin substrate reaction system in vitro To a mixture containing 200 μl of a 125 mM pyrophosphate buffer (ph 7.4), 25 μl of a 20 mM aqueous solution of […] as an angiotensin converting enzyme inhibitor, 50 μl of semipurified sheep renin substrate (4400 ng angiotensin I/ml) 50 μl of dimethyl sulfoxide solution of a dipeptide of the present invention and 150 μl of deionized water was added 25 μl of purified human renin (20-30 ng angiotensin I/hr). The mixture was incubated for 15 minutes on a water bath at 37° C., and the reaction mixture was allowed to stand for 5 minutes on a water bath at 100° C. to stop the reaction. After cooling, 200 μl of the solution were taken up and the amount of angiotensin I produced by the addition of renin was determined by radioimmunoassay. The inhibitory effect was calculated by the following equation. [formula] As a control, the same procedure as above was carried out by using 50 μl of dimethyl sulfoxide alone in place of the 50 μl of dimethyl sulfoxide solution containing an amino acid derivative of the present invention. The molar concentration which produced 50% inhibition (IC50) was calculated from the inhibition value obtained, and the results are shown below.

marmoset = experiment: Hypotensive effect in marmoset (furosemide-induced high renin state, i.v. injection); format: in vivo, common marmoset; conditions: 2.5 mg/kg i.v., conscious male marmoset, furosemide pretreated
Procedure: Hypotensive effect in marmoset
The experiment was carried out by using common marmoset as described in K. G. Hofbauer et al., Clinical and Experimental Hypertension-Theory and Practice, Vol. A5, No. 7 & 8 (1983), pages 1237-1247.
Furosemide was orally administered three times to common marmoset at 15 mg per kilogram per day every other day to create a high renin state. Blood pressure of consious marmoset was measured 2 days after the last administration of furosemide.
Measurement of blood pressure
Male common marmoset weighing 325 g was lightly anesthetized by ketamine hydrochloride (Ketalar, produced by Parke Davis, 20 mg/kg i.m.), and their carotid artery and vein exposed.. Catheters being filled with a heparin solution was subcutaneously inserted into the carotid artery and vein from the dorsum. After suturing of the opened part, the marmosets were placed on a heated mat. After complete recovery from the anesthesia, an amino acid derivative of the present invention (2.5 mg/kg) was intravenously injected through the venous catheter.
The arterial catheter was connected to a pressure transducer and blood pressure was recorded on the polygraph.

With `CNC(=O)C(O)[C@H](CC(C)C)NC(=O)[C@H](Cc1cnc[nH]1)NC(=O)C(CC(=O)NCCc1ccccc1)Cc1cccc2ccccc12` (mixture of isomers) [(2RS,3S)-3-{N-[(+)-2-(1-naphthylmethyl)-3-(phenethylcarbamoyl)propionyl]-L-histidyl}-amino-2-hydroxy-5-methylhexanoylmethylamide] the IC50 (human renin) was 700 nM.
For `COC(=O)C(O)[C@H](CC(C)C)NC(=O)[C@H](Cc1c[nH]cn1)NC(=O)C(CC(=O)NCCc1ccccc1)Cc1cccc2ccccc12` (mixture of isomers) [methyl (2RS, 3S)-3-{N-[(+)-2-(1-naphthylmethyl)-3-(phenethylcarbamoyl)propionyl]-L-histidyl}amino-2-hydroxy-5-methylhexanoate], the IC50 (human renin) was 49 nM, the Diastolic blood pressure (marmoset; 1 min after injection (control 72)) was 56 mm Hg and the Systolic blood pressure (marmoset; 1 min after injection (control 103)) was 85 mm Hg. It also gave a Diastolic blood pressure (marmoset; 3 min after injection (control 72)) of 61 mm Hg, a Systolic blood pressure (marmoset; 3 min after injection (control 103)) of 91 mm Hg and a Diastolic blood pressure (marmoset; 5 min after injection (control 72)) of 62 mm Hg. It also gave a Systolic blood pressure (marmoset; 5 min after injection (control 103)) of 92 mm Hg, a Diastolic blood pressure (marmoset; 10 min after injection (control 72)) of 70 mm Hg and a Systolic blood pressure (marmoset; 10 min after injection (control 103)) of 102 mm Hg. The Diastolic blood pressure (marmoset; 15 min after injection (control 72)) was 72 mm Hg and the Systolic blood pressure (marmoset; 15 min after injection (control 103)) was 103 mm Hg.
Work on `CC(C)C[C@H](NC(=O)[C@H](Cc1c[nH]cn1)NC(=O)C(CC(=O)NCCc1ccccc1)Cc1cccc2ccccc12)C(O)C(=O)OCc1ccccc1` (single isomer, unassigned) yielded an IC50 (human renin) of 42 nM.
`CC(C)CCOC(=O)C(O)[C@H](CC(C)C)NC(=O)[C@H](Cc1c[nH]cn1)NC(=O)C(CC(=O)NCCc1ccccc1)Cc1cccc2ccccc12` (single isomer, unassigned) was tested, and the IC50 (human renin) was 61 nM.
`COC(=O)[C@H](O)[C@H](CC(C)C)NC(=O)[C@H](Cc1cnc[nH]1)NC(=O)C(CC(=O)NCCc1ccccc1)Cc1cccc2ccccc12` (single isomer, unassigned) gave an IC50 (human renin) of 31 nM.
`COC(=O)[C@@H](O)[C@H](CC(C)C)NC(=O)[C@H](Cc1cnc[nH]1)NC(=O)C(CC(=O)NCCc1ccccc1)Cc1cccc2ccccc12` (single isomer, unassigned) showed an IC50 (human renin) of 1300 nM.
`CC(C)C[C@H](NC(=O)[C@H](Cc1cnc[nH]1)NC(=O)C(CC(=O)NCCc1ccccc1)Cc1cccc2ccccc12)C(O)C(=O)NCc1ccccc1` (single isomer, unassigned) showed an IC50 (human renin) of 100 nM.
For `CC(C)CCNC(=O)C(O)[C@H](CC(C)C)NC(=O)[C@H](Cc1cnc[nH]1)NC(=O)C(CC(=O)NCCc1ccccc1)Cc1cccc2ccccc12` (single isomer, unassigned), the IC50 (human renin) was 250 nM.
With `CC(C)C[C@H](NC(=O)[C@H](Cc1cnc[nH]1)NC(=O)C(CC(=O)NCCc1ccccc1)Cc1cccc2ccccc12)C(O)C(=O)N(C)C` (single isomer, unassigned) the IC50 (human renin) was 2800 nM.
With `CNC(=O)C(O)[C@H](CC(C)C)NC(=O)[C@H](Cc1cnc[nH]1)NC(=O)C(CC(=O)NCCc1ccccc1)Cc1cccc2ccccc12` (single isomer, unassigned) [listing 1 of 2 here] the IC50 (human renin) was 4500 nM.
`CNC(=O)C(O)[C@H](CC(C)C)NC(=O)[C@H](Cc1cnc[nH]1)NC(=O)C(CC(=O)NCCc1ccccc1)Cc1cccc2ccccc12` (single isomer, unassigned) [listing 2 of 2 here] was tested, and the IC50 (human renin) was 390 nM.
Work on `CC(C)C[C@H](NC(=O)[C@H](Cc1c[nH]cn1)NC(=O)C(CC(=O)NCCc1ccccc1)Cc1cccc2ccccc12)[C@@H](O)CCO` (single isomer, unassigned) yielded an IC50 (human renin) of 5900 nM.
`COCC(O)[C@H](CC(C)C)NC(=O)[C@H](Cc1cnc[nH]1)NC(=O)C(CC(=O)NCCc1ccccc1)Cc1cccc2ccccc12` (single isomer, unassigned) [(2RS, 3S)-3-{N-(+)-2-(1-Naphthylmethyl)-3-(phenethylcarbamoyl)propionyl]-L-histidyl}amino-2-hydroxy-5-methylhexyl methyl ether] was tested, and the IC50 (human renin) was 790 nM.
`CC(C)CCOCC(O)[C@H](CC(C)C)NC(=O)[C@H](Cc1c[nH]cn1)NC(=O)C(CC(=O)NCCc1ccccc1)Cc1cccc2ccccc12` (single isomer, unassigned) [(2RS, 3S)-3-{N-[(+)-2-(1-Naphthylmethyl)-3-(phenethylcarbamoyl)propionyl]-L-histidyl}amino-2-hydroxy-5-methylhexyl isoamyl ether] showed an IC50 (human renin) of 280 nM.
`CC(C)C[C@H](NC(=O)[C@H](Cc1c[nH]cn1)NC(=O)C(CC(=O)NCCc1ccccc1)Cc1cccc2ccccc12)C(O)CO` (single isomer, unassigned) [(2RS, 3S)-3-{N-[(+)-2-(1-naphthylmethyl)-3-(phenethylcarbamoyl)propionyl]-L-histidyl}amino-2-hydroxy-5-methylhexanol] showed an IC50 (human renin) of 590 nM.
Compound `CC(C)C[C@H](NC(=O)[C@H](Cc1cnc[nH]1)NC(=O)C(CC(=O)NCCc1ccccc1)Cc1cccc2ccccc12)C(O)COCc1ccccc1` (single isomer, unassigned) [(2RS, 3S)-3-{N-[(+)-2-(1-naphthylmethyl)-3-phenethylcarbamoyl)propionyl]-L-histidyl}amino-2-hydroxy-5-methylhexyl benzyl ether] has an IC50 (human renin) of 470 nM.
With `CC(C)C[C@H](NC(=O)[C@H](Cc1cnc[nH]1)NC(=O)C(CC(=O)NCCc1ccccc1)Cc1cccc2ccccc12)C(O)CNCc1ccccc1` (single isomer, unassigned) [(2RS, 3S)-N-Benzyl-3-{N-[(+)-2-(1-naphthylmethyl)-3-(phenethylcarbamoyl)propiobnyl]-L-histidyl}amino-2-hydroxyl-5-methylhexylamine] the IC50 (human renin) was 150 nM.
Compound `CC(C)CCNCC(O)[C@H](CC(C)C)NC(=O)[C@H](Cc1cnc[nH]1)NC(=O)C(CC(=O)NCCc1ccccc1)Cc1cccc2ccccc12` (single isomer, unassigned) [(2RS, 3S)-N-Isoamyl-3-{N-[(+)-2-(1-naphthylmethyl)-3-(phenethylcarbamoyl)propionyl]-L-histidyl}-amino-2-hydroxy-5-methylhexylamine] has an IC50 (human renin) of 350 nM.
Work on `COC(=O)C[C@H](O)[C@H](CC(C)C)NC(=O)[C@H](Cc1cnc[nH]1)NC(=O)C(CC(=O)NCCc1ccccc1)Cc1cccc2ccccc12` (single isomer, unassigned) [Methyl N-[(+)-2-(1-naphthylmethyl)-3-(phenethylcarbamoyl)propionyl]-L-histidylstatinate] yielded an IC50 (human renin) of 310 nM.
Compound `CC(C)CCNC(=O)C[C@H](O)[C@H](CC(C)C)NC(=O)[C@H](Cc1cnc[nH]1)NC(=O)C(CC(=O)NCCc1ccccc1)Cc1cccc2ccccc12` (single isomer, unassigned) [N-[(+)-2-(1-Naphthylmethyl)-3-(phenethylcarbamoyl)propionyl]-L-histidylstatylisoamylamide] has an IC50 (human renin) of 72 nM.
In the case of `CNC(=O)C[C@H](O)[C@H](CC(C)C)NC(=O)[C@H](Cc1cnc[nH]1)NC(=O)C(CC(=O)NCCc1ccccc1)Cc1cccc2ccccc12` (single isomer, unassigned) [N-[(+)-2-(1-Naphthylmethyl)-3-(phenethylcarbamoyl)propionyl]-L-histidylstatylmethylamide], the IC50 (human renin) is reported as 740 nM.

— patent publication US4841067A, “Novel amino acid derivatives” (Kissei Pharmaceutical Co., Ltd., priority 1985, dated 1989)
